Experimental data: the supplement of paper PMC10307832

Experiments:
Experiment in all cases: relative viability (nuclei count vs DMSO), 5 days (fraction); higher = more cells survive
AGI-6780 + Navitoclax = compound: O=C(Nc1cccc(C(F)(F)F)c1)Nc1cc(S(=O)(=O)NC2CC2)ccc1-c1ccsc1 [AGI-6780] + CC1(C)CCC(c2ccc(Cl)cc2)=C(CN2CCN(c3ccc(C(=O)NS(=O)(=O)c4ccc(N[C@H](CCN5CCOCC5)CSc5ccccc5)c(S(=O)(=O)C(F)(F)F)c4)cc3)CC2)C1 [Navitoclax] (partner 0.5 µM)
In short: (§1)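 Each reported value is a median over duplicate plates. It expresses relative viability: treated-well nuclei count divided by vehicle-well nuclei count. Lung cancer cell lines in 1536-well plates were dosed by pin tool a day after seeding, alone with one drug or with a fixed anchor-drug dose plus five library-drug doses (not always all listed) in √10 steps, and nuclei were counted after 5 days.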

AGI-6780 + Linsitinib = compound: O=C(Nc1cccc(C(F)(F)F)c1)Nc1cc(S(=O)(=O)NC2CC2)ccc1-c1ccsc1 [AGI-6780] + C[C@]1(O)C[C@@H](c2nc(-c3ccc4ccc(-c5ccccc5)nc4c3)c3c(N)nccn32)C1 [Linsitinib] (partner 1 µM)
In short: as §1

AGI-6780 + Alpelisib = compound: O=C(Nc1cccc(C(F)(F)F)c1)Nc1cc(S(=O)(=O)NC2CC2)ccc1-c1ccsc1 [AGI-6780] + Cc1nc(NC(=O)N2CCC[C@H]2C(N)=O)sc1-c1ccnc(C(C)(C)C(F)(F)F)c1 [Alpelisib] (partner 2 µM)
In short: as §1

AGI-6780 + Vorinostat = compound: O=C(Nc1cccc(C(F)(F)F)c1)Nc1cc(S(=O)(=O)NC2CC2)ccc1-c1ccsc1 [AGI-6780] + O=C(CCCCCCC(=O)Nc1ccccc1)NO [Vorinostat] (partner 1 µM)
In short: as §1

Cell Line | relative viability (AGI-6780 + Navitoclax; first compound 0.08 µM) | relative viability (AGI-6780 + Navitoclax; first compound 0.253 µM) | relative viability (AGI-6780 + Navitoclax; first compound 0.8 µM) | relative viability (AGI-6780 + Navitoclax; first compound 2.53 µM) | relative viability (AGI-6780 + Navitoclax; first compound 8 µM) | relative viability (AGI-6780 + Linsitinib; first compound 0.08 µM) | relative viability (AGI-6780 + Linsitinib; first compound 0.253 µM) | relative viability (AGI-6780 + Linsitinib; first compound 0.8 µM) | relative viability (AGI-6780 + Linsitinib; first compound 2.53 µM) | relative viability (AGI-6780 + Linsitinib; first compound 8 µM) | relative viability (AGI-6780 + Alpelisib; first compound 0.08 µM) | relative viability (AGI-6780 + Alpelisib; first compound 0.253 µM) | relative viability (AGI-6780 + Alpelisib; first compound 0.8 µM) | relative viability (AGI-6780 + Alpelisib; first compound 2.53 µM) | relative viability (AGI-6780 + Alpelisib; first compound 8 µM) | relative viability (AGI-6780 + Vorinostat; first compound 0.08 µM) | relative viability (AGI-6780 + Vorinostat; first compound 0.253 µM) | relative viability (AGI-6780 + Vorinostat; first compound 0.8 µM) | relative viability (AGI-6780 + Vorinostat; first compound 2.53 µM) | relative viability (AGI-6780 + Vorinostat; first compound 8 µM)
COR-L 105 | 0.918 | 0.62 | 0.841 | 0.862 | 0.763 | 0.989 | 0.946 | 0.941 | 0.808 | 0.952 | 1.19 | 1.02 | 0.986 | 0.863 | 1.04 | 0.908 | 1.34 | 0.975 | 0.97 | 0.841
NCI-H2087 | 1.08 | 0.986 | 0.98 | 0.982 | 0.97 | 1.06 | 0.891 | 0.85 | 0.984 | 0.883 | 1.17 | 1.1 | 1.15 | 0.983 | 1.14 | 0.546 | 0.646 | 0.719 | 0.744 | 0.868
LC-2-ad | 0.552 | 0.468 | 0.505 | 0.249 | 0.659 | 0.824 | 0.9 | 0.878 | 0.882 | 0.791 | 0.945 | 0.983 | 0.897 | 0.862 | 0.826 | 0.754 | 0.72 | 0.776 | 0.661 | 0.726
HARA | 1.2 | 1.15 | 1.09 | 1.19 | 1.19 | 0.921 | 0.949 | 0.841 | 0.971 | 0.985 | 0.925 | 0.834 | 0.585 | 0.801 | 0.974 | 0.431 | 0.575 | 0.499 | 0.528 | 0.616
NCI-H727 | 0.493 | 0.448 | 0.474 | 0.369 | 0.494 | 0.285 | 0.331 | 0.325 | 0.235 | 0.285 | 0.679 | 0.588 | 0.742 | 0.491 | 0.548 | 1.16 | 1.01 | 1.15 | 1.13 | 1.16
LCLC-97TM1 | 0.503 | 0.702 | 0.642 | – | 0.431 | 0.177 | 0.252 | 0.21 | – | 0.186 | 0.211 | 0.246 | 0.393 | – | 0.351 | 0.739 | 0.886 | 0.785 | 0.572 | 0.598
LU99A | 0.786 | 0.842 | 0.823 | 0.741 | 0.809 | 0.581 | 0.57 | 0.54 | 0.498 | 0.565 | 0.528 | 0.524 | 0.516 | 0.518 | 0.558 | 0.568 | 0.461 | 0.502 | 0.335 | 0.466
NCI-H1651 | 1.04 | 1.13 | 1.01 | 0.912 | 0.906 | 0.959 | 0.966 | 0.982 | 0.876 | 0.837 | 0.9 | 0.963 | 0.931 | 0.736 | 0.886 | 0.481 | 0.568 | 0.509 | 0.545 | 0.661
NCI-H322M | 1.11 | 1.14 | 1.28 | 1.24 | 1.21 | 0.883 | 0.969 | 1.03 | 0.772 | 0.878 | 0.902 | 0.917 | 0.88 | 0.906 | 0.827 | – | 0.956 | 1.03 | 0.855 | 0.855
SK-LU-1 | 0.904 | 0.961 | 0.418 | 0.851 | 0.955 | 1.11 | 0.976 | 0.76 | 0.917 | 1.16 | 0.957 | 0.906 | 0.797 | 1 | 1.02 | 0.816 | 0.798 | 0.534 | 0.732 | 0.786
NCI-H1666 | 0.985 | 0.894 | 0.909 | – | 0.92 | 0.947 | 0.92 | 0.811 | – | 0.927 | 1.08 | 0.876 | 1.01 | – | 0.927 | 1.01 | 0.996 | 1.04 | 0.902 | 1.06
NCI-H2126 | 0.926 | 0.898 | 0.839 | 0.738 | 0.84 | 0.761 | 0.802 | 0.709 | 0.585 | 0.712 | 0.812 | 0.72 | 0.767 | 0.696 | 0.741 | 0.855 | 0.884 | 0.79 | 0.585 | 0.758
